Reference: US20070043105A1, “Preventive for cerebal stroke recurrence” (ASTELLAS PHARMA INC., priority 2003, published 2007)

What was measured:
SHR-SP rats = details: administration before attack; cited from earlier work
[1] = system: stroke-prone spontaneously hypertensive rats (SHR-SP); assay: Cerebral stroke recurrence score (daily body weight change) after primary stroke attack in SHR-SP rats; type: in vivo, rat; details: vs control
Procedure: (§1) The dose was 3 and 30 mg/kg, and it was repeatedly orally administered once a day.
(§2) SHR-SP male rats (9-week age when bought, by Nippon SLC) were bred under a constant-temperature and constant-humidity condition. The feed was solid SP feed for breeding SHR-SP rats; and every rat was kept to freely drink tap water as automatically supplied thereto. The body weight of each rat was measured everyday, and the rats were checked for an cerebral stroke attack (Stroke, Vol. 20(9), pp. 1212-1218, 1989; Journal of Pharmacology & Experimental Therapeutics, Vol. 291(2), pp. 569-575, 1999). The cerebral stroke attack in the rats of this line is accompanied by neurologic symptoms such as paralysis or hemiplegia (European Journal of Pharmacology, Vol. 192 (1), pp. 165-167, 1991), and abnormal body weight change such as rapid body weight reduction. The abnormal body weight change may be considered to be caused by the deterred drinking and eating owing to the cerebral stroke attack (Brain Research, Vol. 452 (1-2), pp. 323-328, 1988; Stroke, Vol. 20(8), pp. 1089-1091, 1989; European Journal of Pharmacology, Vol. 192 (1), pp. 165-167, 1991).
(§3) A Steel test was used to the neurologic symptom and recurrence scores, and a Log-rank test was applied to the survival rate.

[2] = system: stroke-prone spontaneously hypertensive rats (SHR-SP); assay: Cerebral stroke recurrence-accompanied neurologic symptom score in SHR-SP rats; type: in vivo, rat
Source text: Regarding the neurologic symptom, both the fore-legs and both the hind legs of a test case are checked for the paralysis and the activity depression as the items of the neurologic symptoms thereof, and they are scored depending on the degree of the symptoms. Concretely, according to a reference (European Journal of Pharmacology, 192, 165-167, 1991), they are normal state (score 0), light symptom (score 1), middle symptom (score 2) and heavy symptom (score 3); and the final data of an individual are the total of the scores of these items. The maximum score is 15.
as §1, §2
The rats were checked for their neurologic symptoms on the day the first stroke occurred and 7 and 14 days later by the modified method of Yamamoto (Brain Research, Vol. 452(1-2), pp. 323-328, 1988; Stroke, Vol. 20(8), pp. 1089-1091, 1989; European Journal of Pharmacology, Vol. 192(1), pp. 165-167, 1991). Both the fore-legs and both the hind legs of the rats were checked for the paralysis and the activity depression as the items of the neurologic symptoms thereof. […] The final data of the individual rat are the total of the scores of these items. The maximum score is 15.
as §3

[3] = system: stroke-prone spontaneously hypertensive rats (SHR-SP); assay: Survival rate after onset of the stroke in SHR-SP rats; type: in vivo, rat; details: for survival rate: control 3/28 (10.7%)
Procedure: as §1, §2
Vehicle or atorvastatin was orally administered everyday, once a day from day of the first stroke to death.
as §3

[4] = system: stroke-prone spontaneously hypertensive rats (SHR-SP); assay: Blood pressure, heart beat and total cholesterol level in SHR-SP rats after primary stroke attack; type: in vivo, rat; details: administration groups (3 and 30 mg/kg/day), within 2 weeks after the primary cerebral stroke attack
[5] = system: hypertension cases or CHD-having cases; details: cited from earlier work
eNOS = details: cited from earlier work
[6] = 3 mg/kg/day p.o., day 14 after the primary cerebral stroke attack, Steel test
[7] = 30 mg/kg/day p.o., day 7 after the primary cerebral stroke attack
[8] = 30 mg/kg/day p.o., day 14 after the primary cerebral stroke attack, Steel test

Structure (SMILES)	prevention of cerebral stroke attack (SHR-SP rats)	survival rate (SHR-SP rats)	cerebral stroke recurrence symptoms (recurrence score) [1, 6]	cerebral stroke recurrence symptoms (recurrence score) [1, 7]	cerebral stroke recurrence symptoms (recurrence score) [1, 8]	neurologic symptoms (score) ([2]; 3 mg/kg/day p.o., day 7 after the primary cerebral stroke attack)	neurologic symptoms (score) [2, 6]	level of neurologic symptoms reached ([2]; 30 mg/kg administration group, day 14 after the primary cerebral stroke attack)	neurologic symptoms (score) [2, 7]	neurologic symptoms (score) [2, 8]	survival rate ([3]; 3 mg/kg/day p.o., day 35 after the primary cerebral stroke attack (6/29)) [%]	improvement of survival rate vs control, Log-rank test ([3]; 30 mg/kg/day p.o.)	survival rate ([3]; 30 mg/kg/day p.o., day 35 after the primary cerebral stroke attack (8/24)) [%]	diastolic pressure vs control group [4]	heart beat vs control group [4]	mean blood pressure vs control group [4]	systolic pressure vs control group [4]	total cholesterol level vs control group [4]	primary preventive effect for cerebral stroke [5]	eNOS activity (eNOS)
COCc1c(C(C)C)nc(C(C)C)c(/C=C/[C@@H](O)C[C@@H](O)CC(=O)O)c1-c1ccc(F)cc1 [serivastatin]	effective for prevention of cerebral stroke attack	effective for increasing a survival rate																		
CC(C)c1c(C(=O)Nc2ccccc2)c(-c2ccccc2)c(-c2ccc(F)cc2)n1CC[C@@H](O)C[C@@H](O)CC(=O)O [atorvastatin, (-)-(3R,5R)-7-[2-(4-fluorophenyl)-5-isopropyl-3-phenyl-4-phenylcarbamoyl-1H-pyrrol-1-yl]-3,5-dihydroxyheptanoic acid]			significant improvement	improved symptoms	significant improvement	improved	significant improvement	restored nearly to the ordinary level	improved	significant improvement	20.7	significant difference	33.3	no significant difference	no significant difference	no significant difference	no significant difference	no significant difference	effective for preventing a primary cerebral stroke	increases eNOS activity
